Laboratory results: patent US20240199649A1 (Biosplice Therapeutics, Inc., priority 2022, published 2024)
pIC50: −log10 of the molar value.

Target: recombinant DYRK1A kinase (Homo sapiens (Human), UniProt Q13627)
Assay: DYRK1A kinase assay (Ser/Thr 18 peptide Z-lyte FRET assay)
Type: biochemical
Settings: DYRK1A 0.25 μg/mL, ATP 15 μM, Ser/Thr peptide 18 4 μM; one hour at room temperature; 11-point dose-response, duplicate
Procedure, shortened: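 Z-lyte FRET assay on Ser/Thr 18 peptide, kinase activity read as coumarin/fluorescein emission ratio; compounds incubated 1 h at room temperature, then development reagent 1 h, in duplicate. Phosphorylated and unphosphorylated peptide served as controls; IC50 by non-linear regression of dose-response curves.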

Row | Structure (SMILES) | pIC50
1 | CNc1nc(N[C@@H]2CCN(C3CC3)CC2(F)F)nn2ccc(-c3ccc4nc(C)n(CC(F)F)c4n3)c12 [Compound 386, (R)—N^2-(1-Cyclopropyl-3,3-difluoropiperidin-4-yl)-5-(3-(2,2-difluoroethyl)-2-methyl-3H-imidazo[4,5-b]pyridin-5-yl)-N^4-methylpyrrolo[2,1-f][1,2,4]triazine-2,4-diamine] | 8.34
2 | CNc1nc(N[C@H]2CCN(C3CC3)CC2(F)F)nn2ccc(-c3ccc4nc(C)n(CC(F)F)c4n3)c12 [Compound 387, (S)—N^2-(1-Cyclopropyl-3,3-difluoropiperidin-4-yl)-5-(3-(2,2-difluoroethyl)-2-methyl-3H-imidazo[4,5-b]pyridin-5-yl)-N^4-methylpyrrolo[2,1-f][1,2,4]triazine-2,4-diamine] | 7.89
3 | [2H]C([2H])([2H])Nc1nc(N[C@@H]2CCN(C3COC3)CC2(F)F)nn2ccc(-c3ccc4nc(C)n(CC(F)F)c4n3)c12 [Compound 388, (R)—N^2-(3,3-Difluoro-1-(oxetan-3-yl)piperidin-4-yl)-5-(3-(2,2-difluoroethyl)-2-methyl-3H-imidazo[4,5-b]pyridin-5-yl)-N^4-(methyl-d3)pyrrolo[2,1-f][1,2,4]triazine-2,4-diamine] | 8.33
4 | CNc1nc(NC2CCC3(CC2)OCCO3)nn2ccc(-c3ccc4nc(C)n(CC(F)F)c4n3)c12 [Compound 389, 5-(3-(2,2-Difluoroethyl)-2-methyl-3H-imidazo[4,5-b]pyridin-5-yl)-N^4-methyl-N^2-(1,4-dioxaspiro[4.5]decan-8-yl)pyrrolo[2,1-f][1,2,4]triazine-2,4-diamine] | 8.74
5 | CNc1nc(N[C@H]2CC[C@](C)(O)CC2)nn2ccc(-c3ccc4nnn(CC(F)F)c4n3)c12 [Compound 465, (1r,4r)-4-((5-(3-(2,2-Difluoroethyl)-3H-[1,2,3]triazolo[4,5-b]pyridin-5-yl)-4-(methylamino)pyrrolo[2,1-f][1,2,4]triazin-2-yl)amino)-1-methylcyclohexan-1-ol] | 8.85
6 | CCNc1nc(N[C@@H]2CCNCC2(F)F)nn2ccc(-c3ccc4nc(C)n(CC(F)F)c4n3)c12 [Compound 482, (R)-5-(3-(2,2-Difluoroethyl)-2-methyl-3H-imidazo[4,5-b]pyridin-5-yl)-N^2-(3,3-difluoropiperidin-4-yl)-N^4-ethylpyrrolo[2,1-f][1,2,4]triazine-2,4-diamine] | 8.51
7 | CCNc1nc(N[C@@H]2CCN(C)CC2(F)F)nn2ccc(-c3ccc4nc(C)n(CC(F)F)c4n3)c12 [Compound 483, (R)—N^2-(3,3-difluoro-1-methylpiperidin-4-yl)-5-(3-(2,2-difluoroethyl)-2-methyl-3H-imidazo[4,5-b]pyridin-5-yl)-N^4-ethylpyrrolo[2,1-f][1,2,4]triazine-2,4-diamine] | 8.44
8 | Cc1nc2ccc(-c3ccn4nc(N[C@@H]5CCNCC5(F)F)nc(NC(C)C)c34)nc2n1CC(F)F [Compound 484, (R)-5-(3-(2,2-Difluoroethyl)-2-methyl-3H-imidazo[4,5-b]pyridin-5-yl)-N^2-(3,3-difluoropiperidin-4-yl)-N^4-isopropylpyrrolo[2,1-f][1,2,4]triazine-2,4-diamine] | 8.19
9 | Cc1nc2ccc(-c3ccn4nc(N[C@@H]5CCN(C)CC5(F)F)nc(NC(C)C)c34)nc2n1CC(F)F [Compound 485, (R)—N^2-(3,3-Difluoro-1-methylpiperidin-4-yl)-5-(3-(2,2-difluoroethyl)-2-methyl-3H-imidazo[4,5-b]pyridin-5-yl)-N^4-isopropylpyrrolo[2,1-f][1,2,4]triazine-2,4-diamine] | 8.14
10 | Cc1nc2ccc(-c3ccn4nc(N[C@@H]5CCNCC5(F)F)nc(NC5COC5)c34)nc2n1CC(F)F [Compound 486, (R)-5-(3-(2,2-Difluoroethyl)-2-methyl-3H-imidazo[4,5-b]pyridin-5-yl)-N^2-(3,3-difluoropiperidin-4-yl)-N^4-(oxetan-3-yl)pyrrolo[2,1-f][1,2,4]triazine-2,4-diamine] | 5.11
11 | Cc1nc2ccc(-c3ccn4nc(N[C@@H]5CCN(C)CC5(F)F)nc(NC5COC5)c34)nc2n1CC(F)F [Compound 487, (R)—N2-(3,3-Difluoro-1-methylpiperidin-4-yl)-5-(3-(2,2-difluoroethyl)-2-methyl-3H-imidazo[4,5-b]pyridin-5-yl)-N4-(oxetan-3-yl)pyrrolo[2,1-f][1,2,4]triazine-2,4-diamine] | 8.42

Now those with a higher pIC50, led by results:

Row | pIC50 | Structure (SMILES)
12 | 8.89 | CNc1nc(N[C@H]2CCN(C3COC3)C[C@H]2F)nn2ccc(-c3ccc4nnn(CC(F)F)c4n3)c12 [Compound 474, 5-(3-(2,2-Difluoroethyl)-3H-[1,2,3]triazolo[4,5-b]pyridin-5-yl)-N^2-((3R,4S)-3-fluoro-1-(oxetan-3-yl)piperidin-4-yl)-N^4-methylpyrrolo[2,1-f][1,2,4]triazine-2,4-diamine]
13 | 8.89 | CNc1nc(N[C@@H]2CCN(C3COC3)CC2(F)F)nn2ccc(-c3ccc4nnn(CC(F)F)c4n3)c12 [Compound 480, (R)—N^2-(3,3-Difluoro-1-(oxetan-3-yl)piperidin-4-yl)-5-(3-(2,2-difluoroethyl)-3H-[1,2,3]triazolo[4,5-b]pyridin-5-yl)-N^4-methylpyrrolo[2,1-f][1,2,4]triazine-2,4-diamine]
14 | 9.00 | CC(=O)N1C[C@H](F)[C@H](Nc2nc(N)c3c(-c4ccc5nc(C)n(CC(F)F)c5n4)ccn3n2)C1 [Compound 700, 1-((3R,4S)-3-((4-Amino-5-(3-(2,2-difluoroethyl)-2-methyl-3H-imidazo[4,5-b]pyridin-5-yl)pyrrolo[2,1-f][1,2,4]triazin-2-yl)amino)-4-fluoropyrrolidin-1-yl)ethan-1-one]
15 | 9.00 | Cc1nc2ccc(-c3ccn4nc(N[C@@H]5CN(C6COC6)C[C@@H]5F)nc(N)c34)nc2n1CC(F)F [Compound 701, 5-(3-(2,2-Difluoroethyl)-2-methyl-3H-imidazo[4,5-b]pyridin-5-yl)-N^2-((3R,4S)-4-fluoro-1-(oxetan-3-yl)pyrrolidin-3-yl)pyrrolo[2,1-f][1,2,4]triazine-2,4-diamine]
16 | 9.05 | Cc1nc2ccc(-c3ccn4nc(N[C@H]5CC[C@](C)(O)CC5)nc(N)c34)nc2n1CC(F)F [Compound 692, (1r,4r)-4-((4-Amino-5-(3-(2,2-difluoroethyl)-2-methyl-3H-imidazo[4,5-b]pyridin-5-yl)pyrrolo[2,1-f][1,2,4]triazin-2-yl)amino)-1-methylcyclohexan-1-ol]
17 | 9.15 | CNc1nc(N[C@H]2CC[C@@](C)(O)CC2)nn2ccc(-c3ccc4nc(C)n(CC(F)(F)F)c4n3)c12 [Compound 441, (1s,4s)-1-Methyl-4-((5-(2-methyl-3-(2,2,2-trifluoroethyl)-3H-imidazo[4,5-b]pyridin-5-yl)-4-(methylamino)pyrrolo[2,1-f][1,2,4]triazin-2-yl)amino)cyclohexan-1-ol]
18 | 9.22 | CNc1nc(N[C@@H]2CCN(C)CC2(F)F)nn2ccc(-c3ccc4nnn(CC(F)F)c4n3)c12 [Compound 479, (R)—N^2-(3,3-Difluoro-1-methylpiperidin-4-yl)-5-(3-(2,2-difluoroethyl)-3H-[1,2,3]triazolo[4,5-b]pyridin-5-yl)-N4-methylpyrrolo[2,1-f][1,2,4]triazine-2,4-diamine]
